# What was measured:
# [1] = molecular target: Cyclin-dependent kinase 2 (Homo sapiens, UniProt P24941); assay: Inhibitory concentration against cyclin-dependent kinase 2
# [2] = molecular target: Cyclin-dependent kinase 4 (Homo sapiens, UniProt P11802); assay: Inhibitory concentration against cyclin-dependent kinase 4
# Chain of Cyclin-dependent kinase 4 (P11802 whole entry): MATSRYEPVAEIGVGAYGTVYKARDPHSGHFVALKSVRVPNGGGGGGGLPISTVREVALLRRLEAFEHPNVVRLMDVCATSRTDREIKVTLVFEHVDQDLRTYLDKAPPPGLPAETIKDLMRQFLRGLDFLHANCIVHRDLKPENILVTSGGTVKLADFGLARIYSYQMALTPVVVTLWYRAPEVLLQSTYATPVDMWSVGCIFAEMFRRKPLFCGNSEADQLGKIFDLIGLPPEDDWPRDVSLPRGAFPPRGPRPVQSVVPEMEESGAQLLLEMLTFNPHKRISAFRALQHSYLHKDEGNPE
SMILES,IC50 [1] [nM],IC50 [2] [nM]
CN(C)CC(O)COc1ccc(Nc2cc(Nc3ccc(Cl)cc3)ncn2)cc1 (stereo not drawn),> 100000,41000
CN(C)CC(O)COc1ccc(Nc2nccc(Nc3ccccc3C#N)n2)cc1 (stereo not drawn),4000,2000
C#CCN(c1ccnc(Nc2ccc(OCC(O)CN(C)C)cc2)n1)c1cc(Cl)ccc1Cl (stereo not drawn),2000,200
CN(C)CC(O)COc1ccc(Nc2nccc(N(CC#N)c3cc(Cl)ccc3Cl)n2)cc1 (stereo not drawn),700,100
COc1ccccc1Nc1ccnc(Nc2ccc(OCC(O)CN(C)C)cc2)n1 (stereo not drawn),15000,19000
CN(C)CC(O)COc1ccc(Nc2nccc(Nc3ccccc3Br)n2)cc1 (stereo not drawn),7000,1000
CN(C)CC(O)COc1ccc(Nc2ncc(Cl)c(Nc3ccccc3)n2)cc1 (stereo not drawn),500,100
CN(C)CC(O)COc1ccc(Nc2ncc(Br)c(Nc3ccccc3)n2)cc1 (stereo not drawn),300,100
CN(C)CC(O)COc1ccc(Nc2nccc(N(CCC#N)c3cc(Cl)ccc3Cl)n2)cc1 (stereo not drawn),3000,300
CN(C)CC(O)COc1ccc(Nc2nccc(Nc3cc(C(F)(F)F)ccc3F)n2)cc1 (stereo not drawn),1000,600
COc1ccc(Nc2cc(Nc3ccc(OCC(O)CN(C)C)cc3)ncn2)cc1 (stereo not drawn),> 100000,57000
Cc1ccc(F)c(Nc2cc(Nc3ccc(OCC(O)CN(C)C)cc3)ncn2)c1 (stereo not drawn),81000,4000
Cc1cnc(Nc2ccc(OCC(O)CN(C)C)cc2)nc1Nc1ccccc1 (stereo not drawn),8000,800
CN(C)CC(O)COc1ccc(Nc2ncc(Br)c(N(CCCC(F)(F)F)c3ccccc3)n2)cc1 (stereo not drawn),200,10
Cc1ccc(Cl)c(Nc2cc(Nc3ccc(OCC(O)CN(C)C)cc3)ncn2)c1 (stereo not drawn),22000,2000
CN(C)CC(O)COc1ccc(Nc2nccc(N(CCCC(F)(F)F)c3cc(Cl)ccc3Cl)n2)cc1 (stereo not drawn),12000,200
CN(C)CC(O)COc1ccc(Nc2nccc(Nc3cccc(Cl)c3)n2)cc1 (stereo not drawn),5000,2000
Cc1ccc(Cl)c(Nc2ccnc(Nc3ccc(OCC(O)CN(C)C)cc3)n2)c1 (stereo not drawn),5000,2000
CN(C)CC(O)COc1ccc(Nc2nccc(Nc3ccc(Cl)cc3)n2)cc1 (stereo not drawn),18000,1000
Cc1ccc(Nc2cc(Nc3ccc(OCC(O)CN(C)C)cc3)ncn2)cc1 (stereo not drawn),> 100000,25000
CN(C)CC(O)COc1ccc(Nc2nccc(Nc3ccccc3Cl)n2)cc1 (stereo not drawn),6000,1000
CN(C)CC(O)COc1ccc(Nc2nccc(Nc3ccccc3)n2)cc1 (stereo not drawn),34000,2000
CN(C)CC(O)COc1ccc(Nc2ncc(F)c(Nc3ccccc3)n2)cc1 (stereo not drawn),> 10000,300
CN(C)CC(O)COc1ccc(Nc2nccc(Nc3cc(Cl)ccc3Cl)n2)cc1 (stereo not drawn),1000,800
Cc1ccc(Nc2ccnc(Nc3ccc(OCC(O)CN(C)C)cc3)n2)cc1 (stereo not drawn),26000,2000
CN(C)CC(O)COc1ccc(Nc2nccc(Nc3ccccc3F)n2)cc1 (stereo not drawn),7000,1000
CN(C)CC(O)COc1ccc(Nc2nccc(N(Cc3ccccc3)c3cc(Cl)ccc3Cl)n2)cc1 (stereo not drawn),> 10000,1000
COc1ccc(Nc2ccnc(Nc3ccc(OCC(O)CN(C)C)cc3)n2)cc1 (stereo not drawn),36000,2000
Cc1ccc(F)c(Nc2ccnc(Nc3ccc(OCC(O)CN(C)C)cc3)n2)c1 (stereo not drawn),2000,700

# From ChEMBL document CHEMBL1136192, “Cyclin-dependent kinase 4 inhibitors as a treatment for cancer. Part 2: identification and optimisation of substituted 2,4-bis anilino pyrimidines” (Bioorg Med Chem Lett, 2003)
